Source: ChEMBL document CHEMBL3885881, “DrugMatrix”

Species: Rattus norvegicus
Experiment: DrugMatrix - Regimen: Daily Repeat
Assay type: toxicity, organism-based, Sprague-Dawley
Parameters: regimen Daily Repeat, gender Male, age 6-8 weeks
Conditions: in vivo, po, route oral GAVAGE, vehicle 100 % WATER; for BASOPHIL / EOSINOPHIL / ERYTHROCYTE COUNT / HEMATOCRIT / HEMOGLOBIN / LEUKOCYTE COUNT / LYMPHOCYTE / MEAN CORPUSCULAR HEMOGLOBIN / MEAN CORPUSCULAR HEMOGLOBIN CONCENTRATION / MEAN CORPUSCULAR VOLUME / MONOCYTE / NEUTROPHIL / PLATELET COUNT: tissue Blood; for ALANINE AMINOTRANSFERASE / ALBUMIN / ALKALINE PHOSPHATASE / ASPARTATE AMINOTRANSFERASE / BLOOD UREA NITROGEN / CHLORIDE / CHOLESTEROL / CREATINE PHOSPHOKINASE / CREATININE / GLUCOSE / PHOSPHORUS / POTASSIUM / SODIUM / TOTAL BILIRUBIN / TOTAL PROTEIN: tissue Plasma
[1] = 0 mg/kg, 72 h, dose level Control, time 3 day
[2] = 0 mg/kg, 120 h, dose level Control, time 5 day
[3] = 8 mg/kg, 72 h, dose level Low, time 3 day
[4] = 8 mg/kg, 120 h, dose level Low, time 5 day
[5] = 29 mg/kg, 72 h, dose level High, time 3 day
[6] = 29 mg/kg, 120 h, dose level High, time 5 day

## CCN[C@@H](C)Cc1cccc(C(F)(F)F)c1 [DEXFENFLURAMINE]
[1]
  BASOPHIL: 0%
  EOSINOPHIL: 0.5%
  ERYTHROCYTE COUNT: 5.8 x10E6/uL
  HEMATOCRIT: 35.07%
  HEMOGLOBIN: 14.12 G/DL
  LEUKOCYTE COUNT: 13.7 x10E3/uL
  LYMPHOCYTE: 82.33%
  MEAN CORPUSCULAR HEMOGLOBIN: 24.38 pg
  MEAN CORPUSCULAR HEMOGLOBIN CONCENTRATION: 40.28 G/DL
  MEAN CORPUSCULAR VOLUME: 60.52 fL
  MONOCYTE: 2.67%
  NEUTROPHIL: 14.5%
  PLATELET COUNT: 911.5 x10E3/uL
  ALANINE AMINOTRANSFERASE: 36.83 u/L
  ALBUMIN: 3.75 G/DL
  ALKALINE PHOSPHATASE: 399.83 u/L
  ASPARTATE AMINOTRANSFERASE: 66 u/L
  BLOOD UREA NITROGEN: 14.67 mg/dL
  CHLORIDE: 101.67 MEQ/L
  CHOLESTEROL: 66.33 mg/dL
  CREATINE PHOSPHOKINASE: 139.5 u/L
  CREATININE: 0.92 mg/dL
  GLUCOSE: 175 mg/dL
  PHOSPHORUS: 11.42 mg/dL
  POTASSIUM: 7.03 MEQ/L
  SODIUM: 148.5 MEQ/L
  TOTAL BILIRUBIN: 1.13 mg/dL
  TOTAL PROTEIN: 6.87 G/DL
[2]
  BASOPHIL: 0%
  EOSINOPHIL: 0.2%
  ERYTHROCYTE COUNT: 6.02 x10E6/uL
  HEMATOCRIT: 36.48%
  HEMOGLOBIN: 14.38 G/DL
  LEUKOCYTE COUNT: 12.34 x10E3/uL
  LYMPHOCYTE: 83%
  MEAN CORPUSCULAR HEMOGLOBIN: 23.92 pg
  MEAN CORPUSCULAR HEMOGLOBIN CONCENTRATION: 39.44 G/DL
  MEAN CORPUSCULAR VOLUME: 60.66 fL
  MONOCYTE: 3%
  NEUTROPHIL: 13.8%
  PLATELET COUNT: 1190.6 x10E3/uL
  ALANINE AMINOTRANSFERASE: 43 u/L
  ALBUMIN: 3.73 G/DL
  ALKALINE PHOSPHATASE: 393 u/L
  ASPARTATE AMINOTRANSFERASE: 62.33 u/L
  BLOOD UREA NITROGEN: 16.33 mg/dL
  CHLORIDE: 101.67 MEQ/L
  CHOLESTEROL: 65.5 mg/dL
  CREATINE PHOSPHOKINASE: 130.67 u/L
  CREATININE: 0.58 mg/dL
  GLUCOSE: 180.67 mg/dL
  PHOSPHORUS: 11.28 mg/dL
  POTASSIUM: 7.05 MEQ/L
  SODIUM: 148.17 MEQ/L
  TOTAL BILIRUBIN: 0.72 mg/dL
  TOTAL PROTEIN: 6.83 G/DL
[3]
  BASOPHIL: 0%
  EOSINOPHIL: 0%
  ERYTHROCYTE COUNT: 5.97 x10E6/uL
  HEMATOCRIT: 35.8%
  HEMOGLOBIN: 14.33 G/DL
  LEUKOCYTE COUNT: 8.6 x10E3/uL
  LYMPHOCYTE: 86.33%
  MEAN CORPUSCULAR HEMOGLOBIN: 24.03 pg
  MEAN CORPUSCULAR HEMOGLOBIN CONCENTRATION: 40.07 G/DL
  MEAN CORPUSCULAR VOLUME: 60 fL
  MONOCYTE: 3.67%
  NEUTROPHIL: 10%
  PLATELET COUNT: 1151 x10E3/uL
  ALANINE AMINOTRANSFERASE: 34.67 u/L
  ALBUMIN: 3.8 G/DL
  ALKALINE PHOSPHATASE: 406.67 u/L
  ASPARTATE AMINOTRANSFERASE: 62.67 u/L
  BLOOD UREA NITROGEN: 16 mg/dL
  CHLORIDE: 100.33 MEQ/L
  CHOLESTEROL: 70 mg/dL
  CREATINE PHOSPHOKINASE: 167.33 u/L
  CREATININE: 0.77 mg/dL
  GLUCOSE: 174 mg/dL
  PHOSPHORUS: 11.97 mg/dL
  POTASSIUM: 6.93 MEQ/L
  SODIUM: 148.67 MEQ/L
  TOTAL BILIRUBIN: 0.67 mg/dL
  TOTAL PROTEIN: 6.7 G/DL
[4]
  BASOPHIL: 0%
  EOSINOPHIL: 0%
  ERYTHROCYTE COUNT: 6.17 x10E6/uL
  HEMATOCRIT: 36.97%
  HEMOGLOBIN: 14.47 G/DL
  LEUKOCYTE COUNT: 12.77 x10E3/uL
  LYMPHOCYTE: 91.67%
  MEAN CORPUSCULAR HEMOGLOBIN: 23.5 pg
  MEAN CORPUSCULAR HEMOGLOBIN CONCENTRATION: 39.13 G/DL
  MEAN CORPUSCULAR VOLUME: 60 fL
  MONOCYTE: 1.67%
  NEUTROPHIL: 6.67%
  PLATELET COUNT: 1202.33 x10E3/uL
  ALANINE AMINOTRANSFERASE: 37 u/L
  ALBUMIN: 3.83 G/DL
  ALKALINE PHOSPHATASE: 391.67 u/L
  ASPARTATE AMINOTRANSFERASE: 62.67 u/L
  BLOOD UREA NITROGEN: 14 mg/dL
  CHLORIDE: 102.67 MEQ/L
  CHOLESTEROL: 62.67 mg/dL
  CREATINE PHOSPHOKINASE: 107 u/L
  CREATININE: 0.6 mg/dL
  GLUCOSE: 196.67 mg/dL
  PHOSPHORUS: 12.6 mg/dL
  POTASSIUM: 7.37 MEQ/L
  SODIUM: 148.67 MEQ/L
  TOTAL BILIRUBIN: 0.53 mg/dL
  TOTAL PROTEIN: 7 G/DL
[5]
  BASOPHIL: 0%
  EOSINOPHIL: 0.33%
  ERYTHROCYTE COUNT: 6.47 x10E6/uL
  HEMATOCRIT: 37.87%
  HEMOGLOBIN: 15.5 G/DL
  LEUKOCYTE COUNT: 12.63 x10E3/uL
  LYMPHOCYTE: 88%
  MEAN CORPUSCULAR HEMOGLOBIN: 24.03 pg
  MEAN CORPUSCULAR HEMOGLOBIN CONCENTRATION: 41 G/DL
  MEAN CORPUSCULAR VOLUME: 58.6 fL
  MONOCYTE: 2%
  NEUTROPHIL: 9.67%
  PLATELET COUNT: 1385.67 x10E3/uL
  ALANINE AMINOTRANSFERASE: 27 u/L
  ALBUMIN: 3.7 G/DL
  ALKALINE PHOSPHATASE: 285.67 u/L
  ASPARTATE AMINOTRANSFERASE: 55.33 u/L
  BLOOD UREA NITROGEN: 13 mg/dL
  CHLORIDE: 102 MEQ/L
  CHOLESTEROL: 63.67 mg/dL
  CREATINE PHOSPHOKINASE: 119.67 u/L
  CREATININE: 0.7 mg/dL
  GLUCOSE: 160 mg/dL
  PHOSPHORUS: 10.57 mg/dL
  POTASSIUM: 6.47 MEQ/L
  SODIUM: 151 MEQ/L
  TOTAL BILIRUBIN: 0.47 mg/dL
  TOTAL PROTEIN: 6.57 G/DL
[6]
  BASOPHIL: 0%
  EOSINOPHIL: 0%
  ERYTHROCYTE COUNT: 6.71 x10E6/uL
  HEMATOCRIT: 38.87%
  HEMOGLOBIN: 15.1 G/DL
  LEUKOCYTE COUNT: 11.3 x10E3/uL
  LYMPHOCYTE: 92.67%
  MEAN CORPUSCULAR HEMOGLOBIN: 22.53 pg
  MEAN CORPUSCULAR HEMOGLOBIN CONCENTRATION: 38.9 G/DL
  MEAN CORPUSCULAR VOLUME: 58 fL
  MONOCYTE: 1.67%
  NEUTROPHIL: 5.67%
  PLATELET COUNT: 1314.33 x10E3/uL
  ALANINE AMINOTRANSFERASE: 33.67 u/L
  ALBUMIN: 3.67 G/DL
  ALKALINE PHOSPHATASE: 333.67 u/L
  ASPARTATE AMINOTRANSFERASE: 57.67 u/L
  BLOOD UREA NITROGEN: 15 mg/dL
  CHLORIDE: 101 MEQ/L
  CHOLESTEROL: 66.67 mg/dL
  CREATINE PHOSPHOKINASE: 104.67 u/L
  CREATININE: 0.6 mg/dL
  GLUCOSE: 197.33 mg/dL
  PHOSPHORUS: 12.47 mg/dL
  POTASSIUM: 6.47 MEQ/L
  SODIUM: 149.67 MEQ/L
  TOTAL BILIRUBIN: 0.33 mg/dL
  TOTAL PROTEIN: 6.57 G/DL
